In patent US12263172B2, “Toll-like receptor agonists for use in the treatment of hepatitis b” (priority 2019, dated 2025):

Key:
[1] = pharmacokinetics and excretion in rat; type: in vivo
From the text: (§1) Exposure increased more than dose-proportionally at low doses. Variability in exposure was high. • In vitro plasma protein binding was between 79.6% and 94.2% in animals and humans. Volume of distribution after intravenous dosing was high. […] Main metabolic pathways were oxygenation, hydrogenation, dehydrogenation, dealkylation, acetylation, glucuronidation, and/or glutathione conjugation. • In rats, >80% of drug-related material was found in feces, 11% to 20% in bile, and <4% in urine. […] There were no effects on embryofetal development up to 1 mg/kg/dose in rats and 30 mg/kg/dose in rabbits.

[2] = target: T1, monkey TLR7 (Macaca fascicularis, UniProt B3Y652); assay: activation of monkey TLR7 (LEC); type: cell-based
T1 sequence (B3Y652 1-1049): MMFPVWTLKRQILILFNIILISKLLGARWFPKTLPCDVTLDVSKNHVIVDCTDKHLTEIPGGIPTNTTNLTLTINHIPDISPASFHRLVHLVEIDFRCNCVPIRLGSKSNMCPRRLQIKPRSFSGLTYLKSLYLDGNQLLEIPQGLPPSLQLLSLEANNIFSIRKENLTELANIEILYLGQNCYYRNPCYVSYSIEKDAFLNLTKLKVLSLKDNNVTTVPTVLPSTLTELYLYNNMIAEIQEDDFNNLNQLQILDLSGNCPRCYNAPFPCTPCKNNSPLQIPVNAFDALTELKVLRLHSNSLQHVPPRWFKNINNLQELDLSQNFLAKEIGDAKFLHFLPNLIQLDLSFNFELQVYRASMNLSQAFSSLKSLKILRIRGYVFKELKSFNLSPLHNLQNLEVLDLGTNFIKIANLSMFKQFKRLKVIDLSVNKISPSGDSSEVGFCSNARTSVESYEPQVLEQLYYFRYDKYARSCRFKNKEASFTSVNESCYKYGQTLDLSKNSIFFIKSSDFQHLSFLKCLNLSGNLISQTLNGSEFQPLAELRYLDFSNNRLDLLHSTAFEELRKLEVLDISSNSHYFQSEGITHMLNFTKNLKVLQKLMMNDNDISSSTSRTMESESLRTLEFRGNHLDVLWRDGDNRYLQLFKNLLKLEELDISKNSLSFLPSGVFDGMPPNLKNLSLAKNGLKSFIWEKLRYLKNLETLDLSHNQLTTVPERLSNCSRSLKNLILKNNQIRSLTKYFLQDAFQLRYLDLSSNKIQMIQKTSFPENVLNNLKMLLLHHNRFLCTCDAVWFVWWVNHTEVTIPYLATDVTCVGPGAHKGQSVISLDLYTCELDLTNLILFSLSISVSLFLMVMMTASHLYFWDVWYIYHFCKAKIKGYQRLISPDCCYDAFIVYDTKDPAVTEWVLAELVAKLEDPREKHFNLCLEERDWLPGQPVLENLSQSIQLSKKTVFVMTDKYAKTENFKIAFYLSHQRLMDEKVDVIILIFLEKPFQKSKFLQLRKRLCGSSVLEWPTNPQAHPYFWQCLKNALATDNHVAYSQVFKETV
From the text: as §1

[3] = in vitro plasma protein binding; type: in vitro ADME; conditions: human, animals and humans
From the text: as §1

[4] = test system: HBV-infected PHHs; assay: antiviral activity of compound-stimulated human whole blood and PBMC supernatant in HBV-infected PHHs; type: cell-based

For `CCCCOc1nc(N)c2[nH]cc(Cc3ccc(CN4CCCC4)cc3)c2n1` [Compound 4], the bioavailability ([1]; rat, in vivo, po) was 15%, the “drug-related material found in feces” value ([1]; rats) was over 80% and the “drug-related material found in urine” value ([1]; rats) was under 4%. For the same compound, the “lowest effective concentration (LEC) for activation of monkey TLR7” value [2] was under 119 nM, the fraction unbound [3] was 0.058 to 0.204 and the “anti-HBV activity target concentration in vitro” value [4] was 3.3 nM. For the same compound, the “maximum decline of HBV DNA compared to DMSO controls” value ([4]; 3.3 nM) was 1.5 log 10, the “maximum decline of HBV RNA compared to DMSO controls” value ([4]; 3.3 nM) was 1.1 log 10 and the “maximum decline of HBeAg compared to DMSO controls” value ([4]; 3.3 nM) was 1.3 log 10. The “maximum decline of HBsAg compared to DMSO controls” value ([4]; 3.3 nM) was 0.4 log 10.
